Source: paper PMC6263254, “Solid-Phase Synthesis of Arylpiperazine Derivatives and Implementation of the Distributed Drug Discovery (D3) Project in the Search for CNS Agents” (Molecules, 2011)
Read-outs that look alike come from different tables or passages of the source.

Assays:
[1] = molecular target: T1, native serotonin 5-HT1A receptors (Rattus norvegicus, UniProt P19327); assay: Radioligand binding, [3H]-8-OH-DPAT, rat hippocampal membranes; conditions: read-out: Ki 5-HT1A; note: SEM ≤ 22%
T1 construct: from tissue; host or cells: rat hippocampus membranes
T1 sequence (P19327 1-422): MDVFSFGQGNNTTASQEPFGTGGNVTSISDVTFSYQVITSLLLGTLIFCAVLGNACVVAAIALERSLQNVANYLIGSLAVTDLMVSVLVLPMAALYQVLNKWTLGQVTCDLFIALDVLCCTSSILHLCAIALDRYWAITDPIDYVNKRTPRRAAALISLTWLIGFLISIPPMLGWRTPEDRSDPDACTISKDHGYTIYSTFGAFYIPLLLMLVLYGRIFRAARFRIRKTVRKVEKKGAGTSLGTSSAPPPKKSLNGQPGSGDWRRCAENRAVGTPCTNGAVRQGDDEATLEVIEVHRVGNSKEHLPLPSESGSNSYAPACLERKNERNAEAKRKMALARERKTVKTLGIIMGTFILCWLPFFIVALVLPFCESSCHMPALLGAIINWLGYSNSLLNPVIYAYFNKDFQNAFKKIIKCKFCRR
Procedure: (§1) Membrane preparation and a general assay procedure were carried out according to the previously published protocols. Two compound concentrations were tested: 0.1 and 1 μM, each run in triplicate.

[2] = molecular target: T2, native serotonin 5-HT2A receptors (Rattus norvegicus, UniProt P14842); assay: Radioligand binding, [3H]-ketanserin, rat cortical membranes; conditions: read-out: Ki 5-HT2A; for Ki 5-HT2A: SEM ≤ 22%
T2 construct: from tissue; host or cells: rat cortex membranes
T2 sequence (P14842 whole entry): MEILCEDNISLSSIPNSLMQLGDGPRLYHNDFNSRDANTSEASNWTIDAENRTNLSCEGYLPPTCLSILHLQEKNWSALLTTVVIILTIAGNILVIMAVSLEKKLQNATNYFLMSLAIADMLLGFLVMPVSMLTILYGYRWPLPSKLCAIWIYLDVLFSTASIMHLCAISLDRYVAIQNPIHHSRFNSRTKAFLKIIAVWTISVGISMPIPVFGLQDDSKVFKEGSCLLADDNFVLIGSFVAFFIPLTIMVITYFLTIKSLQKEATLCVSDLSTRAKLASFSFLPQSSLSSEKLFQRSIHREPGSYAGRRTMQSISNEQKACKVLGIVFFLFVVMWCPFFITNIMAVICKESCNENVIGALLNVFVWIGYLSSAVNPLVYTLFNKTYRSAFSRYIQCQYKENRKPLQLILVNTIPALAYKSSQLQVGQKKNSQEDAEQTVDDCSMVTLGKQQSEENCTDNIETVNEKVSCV
Procedure: as §1

[3] = test system: 5-HT1A receptors; conditions: cited from earlier work
[4] = test system: 5-HT2A; conditions: cited from earlier work
[5] = design: method as in PMID 17321139; conditions: doses of 5–20 mg/kg; ref [4]; cited from earlier work

Row | Compound | potency estimated from few doses [1] [nM] | potency estimated from few doses [2] [nM] | other results
1 | CC(=O)N[C@H]1CC(=O)N(CCCN2CCN(c3cccc(C(F)(F)F)c3)CC2)C1=O [9{8,1}, N-((S)-1-{3-[4-((3-trifluoromethyl)phenyl)piperazin-1-yl]propyl}pyrrolidin-2,5-dion-yl)acetamide] | 129 | 164 | –
2 | O=C(N[C@H]1CC(=O)N(CCCN2CCN(c3cccc(C(F)(F)F)c3)CC2)C1=O)C1CCCCC1 [9{8,3}, N-((S)-1-{3-[4-((3-trifluoromethyl)phenyl)piperazin-1-yl]propyl}pyrrolidin-2,5-dion-yl)cyclohexanecarboxamide] | 170 | 276 | –
3 | O=C(N[C@H]1CC(=O)N(CCCCN2CCN(c3cccc(C(F)(F)F)c3)CC2)C1=O)C1CCCC1 [9{9,2}, N-((S)-1-{4-[4-((3-trifluoromethyl)phenyl)piperazin-1-yl]butyl}pyrrolidin-2,5-dion-yl)cyclopentanecarboxamide] | 24 | 79 | –
4 | O=C(N[C@H]1CC(=O)N(CCCCN2CCN(c3cccc(C(F)(F)F)c3)CC2)C1=O)C1CCCCC1 [9{9,3}, N-((S)-1-{4-[4-((3-trifluoromethyl)phenyl)piperazin-1-yl]butyl}pyrrolidin-2,5-dion-3-yl)cyclohexanecarboxamide] | 19 | 70 | –
5 | O=C1C[C@H](NC(=O)C23CC4CC(CC(C4)C2)C3)C(=O)N1CCCCN1CCN(c2cccc(C(F)(F)F)c2)CC1 [9{9,6}, N-((S)-1-{4-[4-((3-trifluoromethyl)phenyl)piperazin-1-yl]butyl}pyrrolidin-2,5-dion-yl)-1-adamatanecarboxamide] | 21 | 39 | –
6 | O=C(NCCCN1CCN(c2cccc(C(F)(F)F)c2)CC1)[C@@H]1CCCN1C(=O)C12CC3CC(CC(C3)C1)C2 [10{8,6}, 1-(Adamantylcarbonyl)-N-{3-[4-((3-trifluoromethyl)phenyl)piperazin-1-yl]propyl}-L-prolinamide] | 42 | 1650 | –
7 | O=C(NCCCCN1CCN(c2cccc(C(F)(F)F)c2)CC1)[C@@H]1CCCN1C(=O)C1CCCC1 [10{9,2}, 1-(Cyclopentylcarbonyl)-N-{4-[4-((3-trifluoromethyl)phenyl)piperazin-1-yl]butyl}-L-prolinamide] | 26 | 191 | –
8 | O=C(NCCCCN1CCN(c2cccc(C(F)(F)F)c2)CC1)[C@@H]1CCCN1C(=O)C12CC3CC(CC(C3)C1)C2 [10{9,6}, 1-(Adamantylcarbonyl)-N-{4-[4-((3-trifluoromethyl)phenyl)piperazin-1-yl]butyl}-L-prolinamide] | 8 | 699 | –
9 | O=c1[nH]c2ccccc2n1CCN1CCN(c2cccc(C(F)(F)F)c2)CC1 [Flibanserin] | – | – | functional activity at 5-HT1A receptors ([3]; ref [1],[2]): agonist; functional activity at 5-HT2A receptors ([4]; ref [1],[2]): antagonist
10 | COc1ccccc1N1CCN(CCCCN2C(=O)C[C@H](NC(=O)C3CCCCC3)C2=O)CC1 [PZ-68] | – | – | functional activity at 5-HT1A receptors ([3]; ref [4]): partial agonist; functional activity at 5-HT2A receptors ([4]; ref [4]): antagonist; in vivo antidepressant-like activity [5]: showed in vivo antidepressant-like activity
11 | O=C1CC2(CCCC2)CC(=O)N1CCCCN1CCN(c2ncccn2)CC1 [buspirone, reference compound] | 36 | – | –
